According to ChEMBL document CHEMBL1201862, “PubChem BioAssay data set” (2004):
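96-well plates; 48 h exposure; 5 concentrations. Endpoints by linear interpolation between flanking doses. Not reached: highest tested concentration assigned. GI50 marks 50% less growth.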 Activity calls are given as the source filed them. No stated cut-off is given here; in the data, active = GI50 up to about 1.1 µM and inactive = higher.

Assays:
Test in all cases: DTP human tumour cell line panel, 48 h
[1] = tested on: A498
[2] = tested on: CCRF-CEM
[3] = tested on: HCC 2998
[4] = tested on: HCT-15
[5] = tested on: HOP-62
[6] = tested on: IGROV-1
[7] = tested on: NCI-H23
[8] = tested on: NCI-H460
[9] = tested on: OVCAR-5
[10] = tested on: OVCAR-8
[11] = tested on: SK-MEL-5
[12] = tested on: SN12C
[13] = tested on: SNB-19
[14] = tested on: SNB-75
[15] = tested on: SR
[16] = tested on: SW-620
[17] = tested on: U-251
[18] = tested on: UACC-257
[19] = tested on: NCI-H522

Measured: GI50

COC(=O)C1=C(c2ccc3c(c2)OCO3)OC(c2cc(OC)c(OC)c(OC)c2)C1 (stereo not given)
active: [15] 0.667 µM | [16] 0.557 µM
inactive: [1] 2.43 µM | [2] 3.88 µM | [3] 5.77 µM | [5] > 100 µM | [6] 2.75 µM | [7] 3.21 µM | [8] 3.49 µM | [9] > 100 µM | [10] 4.17 µM | [11] 2.49 µM | [12] 4.5 µM | [13] 1.59 µM | [14] 2.72 µM | [17] 2.34 µM | [18] 7.18 µM
0.664 µM: [4]

[N-]=[N+]=NC1C2CC3C4CC5CC3[C@H](C2)C(C5)C41 (stereo not given in full)
inactive: [1] > 100 µM | [2] > 100 µM | [3] > 100 µM | [5] > 100 µM | [6] > 100 µM | [7] > 100 µM | [8] > 100 µM | [19] > 100 µM | [9] > 100 µM | [10] > 100 µM | [11] > 100 µM | [12] > 100 µM | [13] > 100 µM | [14] > 100 µM | [15] > 100 µM | [16] > 100 µM | [17] > 100 µM | [18] > 100 µM

Cc1nn(C)c(=O)c2nn(-c3ccccc3)c(C)c12
inactive: [1] > 100 µM | [2] > 100 µM | [3] > 100 µM | [5] > 100 µM | [6] > 100 µM | [7] > 100 µM | [8] > 100 µM | [19] > 100 µM | [9] > 100 µM | [10] > 100 µM | [11] > 100 µM | [12] > 100 µM | [13] > 100 µM | [14] > 100 µM | [15] > 100 µM | [16] > 100 µM | [17] > 100 µM | [18] > 100 µM
> 100 µM: [4]

COC(=O)C(C(=O)C(=O)Nc1ccc([N+](=O)[O-])cc1)c1nc2cc(C)c(C)cc2nc1O (stereo not given)
inactive: [1] > 100 µM | [2] > 100 µM | [3] 81.3 µM | [5] > 100 µM | [6] > 100 µM | [7] > 100 µM | [8] > 100 µM | [19] > 100 µM | [9] > 100 µM | [11] > 100 µM | [12] > 100 µM | [13] > 100 µM | [14] > 100 µM | [15] > 100 µM | [16] > 100 µM | [17] > 100 µM | [18] > 100 µM
> 100 µM: [4]

O=S(=O)(c1cc(Cl)ccc1Cl)N1CCN(c2ccc(Cl)c(Cl)c2)CC1
inactive: [1] 25.5 µM | [2] 44.8 µM | [3] 62.1 µM | [5] 18.2 µM | [6] 36.8 µM | [7] 33.4 µM | [8] > 10 µM | [19] 18.5 µM | [9] > 100 µM | [10] 23.3 µM | [11] 22.8 µM | [12] 78.5 µM | [13] 14.1 µM | [14] 14 µM | [15] > 100 µM | [16] > 100 µM | [17] 21.7 µM | [18] 33.3 µM
> 100 µM: [4]

CCCCOCN/C(N)=N/C#N
inactive: [1] > 100 µM | [3] > 100 µM | [5] > 100 µM | [6] > 100 µM | [7] > 100 µM | [8] > 100 µM | [19] > 100 µM | [9] > 100 µM | [10] > 100 µM | [11] > 100 µM | [12] > 100 µM | [13] > 100 µM | [14] > 100 µM | [15] 19.6 µM | [16] 18.2 µM | [17] > 100 µM | [18] > 100 µM
21.9 µM: [4]
